Test results reported in US20220047606A1, “TREATMENT METHOD WITH IAP INHIBITOR” (Ascentage Pharma (Suzhou) Co., Ltd., priority 2019, published 2022).

Key:
[1] = Phase I dose-escalation study (NCT03585322) in chronic hepatitis B patients: safety; assay type: in vivo, human
Method: (§1) Methods: This study (NCT number: NCT03585322) is a multi-center, single-agent, open-label, Phase I dose-escalation study. Chronic hepatitis B (CHB) patients without receiving anti-HBV treatment within 6 months before screening were recruited and administrated with Compound (I) weekly via intravenous infusion (IV) in 4 escalated dosage (7 mg, 12 mg, 20 mg and 30 mg) for 4 weeks followed with 12 weeks follow up. The primary objective of this study is to assess the safety, with secondary outcome measures focused on pharmacokinetics (PK) and Pharmacodynamics (PD) of Compound (I) as monotherapy in CHB patients.

[2] = Phase I dose-escalation study (NCT03585322) in chronic hepatitis B patients: pharmacokinetics; assay type: in vivo, human
Method: as §1

[3] = system: hepatitis B virus (HBV); experiment: Phase I dose-escalation study (NCT03585322) in chronic hepatitis B patients: pharmacodynamics (HBsAg, HBV DNA); assay type: in vivo, human
Method: as §1

[4] = Phase I dose-escalation study (NCT03585322) in chronic hepatitis B patients: other findings (Fibro test score, ALT normalization); assay type: in vivo, human; settings: for Fibro Test Score Changes from baseline to end of follow-up, Mean(SD): 12 weeks follow up
Method: as §1

[5] = system: IAPs (inhibitor of apoptosis proteins); experiment: Preclinical studies: IAP inhibition in vivo and in vitro
[6] = system: chronic HBV infections; experiment: Preclinical studies: clearance of chronic HBV infection in different models
[7] = 7 mg weekly IV for 4 weeks, n = 3 CHB patients
[8] = 12 mg weekly IV for 4 weeks, n = 9 CHB patients
[9] = 20 mg weekly IV for 4 weeks, N = 6 CHB patients
[10] = 30 mg weekly IV for 4 weeks, N = 6 CHB patients

With `CN[C@@H](C)C(=O)N[C@H]1CN(S(=O)(=O)c2cccc(S(=O)(=O)N3CC[C@H]4CC[C@@H](C(=O)NC(c5ccccc5)c5ccccc5)N4C(=O)[C@@H](NC(=O)[C@H](C)NC)C3)c2)CC[C@H]2CC[C@@H](C(=O)NC(c3ccccc3)c3ccccc3)N2C1=O` [Compound (I), (5S ,5′S ,8S ,8′S,10aR,10a′R)-3,3′-(1,3-phenylenedisulfonyl)bis(N-benzhydryl-5-((S)-2-(methylamino)propanamido)-6-oxodecahydropyrrolo[1,2-a][1,5]diazocine-8-carboxamide)] the “Any Drug-Related TEAE (%)” value [1, 7] was “(66.7%)”, the “Any Drug-Related TEAE N” value [1, 7] was 2 and the “SAE (%)” value [1, 7] was “(0%)”. For the same compound, the “SAE N” value [1, 7] was 0, the “Any Drug-Related TEAE (%)” value [1, 8] was “(33.3%)” and the “Any Drug-Related TEAE N” value [1, 8] was 3. For the same compound, the “SAE (%)” value [1, 8] was “(0%)”, the “SAE N” value [1, 8] was 0 and the “Any Drug-Related TEAE (%)” value [1, 9] was “(100.0%)”. For the same compound, the “Any Drug-Related TEAE N” value [1, 9] was 6, the “SAE (%)” value [1, 9] was “(0%)” and the “SAE N” value [1, 9] was 0. The “patients with grade 2 facial nerve disorder” value ([1]; 30 mg cohort) was 1 patient, the “time to recovery from grade 2 facial nerve disorder” value ([1]; 30 mg cohort, 1 patient) was ≤ 4 weeks and the “Any Drug-Related TEAE (%)” value [1, 10] was “(83.3%)”. For the same compound, the “Any Drug-Related TEAE N” value [1, 10] was 5, the “SAE (%)” value [1, 10] was “(16.7%)” and the “SAE N” value [1, 10] was 1. For the same compound, the “drug-related adverse event: ALT increase, incidence” value ([1]; all cohorts 7-30 mg weekly IV) was 26%, the “drug-related adverse event: AST increase, incidence” value ([1]; all cohorts 7-30 mg weekly IV) was 22% and the “drug-related adverse event: infusion site pain, incidence” value ([1]; all cohorts 7-30 mg weekly IV) was 15%. For the same compound, the “drug-related adverse event: infusion site reaction, incidence” value ([1]; all cohorts 7-30 mg weekly IV) was 15%, the “drug-related adverse event: total bile acids increase, incidence” value ([1]; all cohorts 7-30 mg weekly IV) was 15% and the “patients with grade 3 ALT or AST elevation” value ([1]; all cohorts 7-30 mg weekly IV) was “Four”. The “safety and tolerability, overall” value ([1]; ascending doses from 7 mg to 30 mg) was “safe and well tolerated”, the “grade 3 ALT or AST elevation, extent” value ([1]; the four patients with grade 3 elevation) was 5-15 × ULN and the “PK analysis: plasma exposure versus dose” value ([2]; 7, 12, 20, 30 mg weekly IV) was “dose proportional increase in plasma exposure”. For the same compound, the “PK analysis: accumulation after multiple dosing” value ([2]; weekly IV for 4 weeks) was “no accumulation after multiple dosing”, the “patients with reduction of HBsAg at ≥0.5 log” value ([3]; 5/26 patients) was 19% and the “patients with reduction of HBsAg at ≥0.2 log” value ([3]; 12/26 patients) was 46%. For the same compound, the “patients with decline of HBV DNA” value ([3]; 23 of 26 patients) was 89%, the “patients with prolonged HBsAg reduction” value ([3]; during post-treatment follow-up, 11/23 patients) was 48% and the “patients with reduction of HBsAg” value ([3]; week 4, 17 of 26 patients) was 65%. The “Fibro Test Score Changes from baseline to end of follow-up, Mean(SD)” value (from here on “Fibro Test Score Changes … Mean(SD)”) ([4]; 7 mg weekly IV for 4 weeks, N = 3) was 0.27 kPa, the “Fibro Test Score Changes … Mean(SD)” value ([4]; 12 mg weekly IV for 4 weeks, N = 3) was −1.80 kPa and the “Fibro Test Score Changes … Mean(SD)” value ([4]; 20 mg weekly IV for 4 weeks, N = 6) was −0.33 kPa. For the same compound, the “Fibro Test Score Changes … Mean(SD)” value ([4]; 30 mg weekly IV for 4 weeks, N = 2) was −4.05 kPa, the “patients with ALT normalization” value ([4]; 10/22 patients) was 46% and the “inhibition of IAPs” value [5] was “inhibits IAPs in vivo and in vitro”. For the same compound, the “clearance of chronic HBV infections” value [6] was “can clear chronic HBV infections in different models”.
